The text below walks through data of paper PMC2955234 (Investigational New Drugs, 2009).

The format of series [1] is in vivo, human.
The next series deals with lymphocyte. Kind of series: Drug lymphocyte stimulation test in the two patients with erythema multiforme. In kind it is cell-based, human. Particulars: both patients with erythema multiforme of cohort 1.
Series [2] is described as follows: Pharmacokinetics of sorafenib in plasma. In kind it is in vivo. To be noted: human, oral, 400 mg; for Cmax: C max.
Another series is described as follows: Dose-limiting toxicity. In kind it is in vivo, human. Particulars: in combination with carboplatin AUC 5 mg min mL^−1 and paclitaxel 200 mg/m^2, Japanese patients with advanced NSCLC.
Setting [3] is: sorafenib at 400 mg twice daily.
Setting [4] is: Cohort 2, dose-adjusted ratio cycle 2 relative to cycle 1.

Like-named read-outs stand apart in the source and are kept apart here.

On to `N.N.O=C([O-])C1(C(=O)[O-])CCC1.[Pt+2]` [carboplatin], for which the “effect of sorafenib on the pharmacokinetics” value in series [1] (setting [3]) is on record as “no effect”. Moreover, the “drug lymphocyte stimulation test result” value in the series with lymphocyte is given as “negative”.
For the compound `CC(=O)O[C@H]1C(=O)[C@@]2(C)[C@H]([C@H](OC(=O)c3ccccc3)[C@]3(O)C[C@H](OC(=O)[C@H](O)[C@@H](NC(=O)c4ccccc4)c4ccccc4)C(C)=C1C3(C)C)[C@]1(OC(C)=O)CO[C@@H]1C[C@@H]2O` [Paclitaxel], in series [1] (setting [4]), the “AUC Ratio [90% CI]” value was 1.05 [0.88–1.25] and the “C max Ratio [90% CI]” value is 1.19 [0.80–1.77]. Besides, the “C max Ratio [90% CI]” value in series [1] (Cohort 2, dose-adjusted ratio cycle 3 relative to cycle 1) was 1.39 [0.88–2.21]. Also, the “increases in the AUC and C max values after sorafenib administration” value in series [1] (setting [3]) was “not statistically significant”. In the series with lymphocyte, the “drug lymphocyte stimulation test result” value is “negative”.
In general, AUC(0-t) refers to the area under the concentration-time curve up to a stated or last time point. A higher AUC(0-t) goes with high exposure. Usually Cmax stands for the peak of the concentration-time curve. Usually half-life stands for how long it takes for the measured level to halve. The low end stands for rapid decline, the high end for slow decline. For `CNC(=O)c1cc(Oc2ccc(NC(=O)Nc3ccc(Cl)c(C(F)(F)F)c3)cc2)ccn1` [Sorafenib], the AUC(0-t) in series [2] (AUC0–12, Cohort 1, cycle 1, day 2, 400 mg sd (n = 6), geometric mean (% CV)) worked out at 18200 ng·h/mL; in series [2] (AUC0–12, Cohort 2, cycle 1, day 2, 400 mg sd (n = 7), geometric mean (% CV)), 9000 ng·h/mL; in series [2] (AUC0–12, Cohort 2, cycle 1, day 19, 400 mg od (n = 7), geometric mean (% CV)) it was 24400 ng·h/mL; in series [2] (AUC0–12, Cohort 2, cycle 2, day 2, 400 mg sd (n = 6), geometric mean (% CV)), 14600 ng·h/mL. Moreover, the Cmax in series [2] (Cohort 1, cycle 1, day 19, 400 mg bid (n = 3), geometric mean (% CV)) turned out to be 4600 ng/mL; in series [2] (Cohort 2, cycle 1, day 2, 400 mg sd (n = 7), geometric mean (% CV)), 1200 ng/mL; in series [2] (Cohort 2, cycle 1, day 19, 400 mg od (n = 7), geometric mean (% CV)), 3200 ng/mL; in series [2] (Cohort 2, cycle 2, day 19, 400 mg bid (n = 4), geometric mean (% CV)) it was 5900 ng/mL. The half-life is 20.4 to 26.8 h in series [2] (mean t 1/2, on day 19, across cohorts and cycles); 20.4 h in series [2] (t 1/2, Cohort 1, cycle 1, day 19, 400 mg bid (n = 3), geometric mean (% CV)); 26.8 h in series [2] (t 1/2, Cohort 2, cycle 1, day 19, 400 mg od (n = 7), geometric mean (% CV)); 23.9 h in series [2] (t 1/2, Cohort 2, cycle 2, day 19, 400 mg bid (n = 4), geometric mean (% CV)). Also, the “dose of sorafenib confirmed to be feasible” value in “Dose-limiting toxicity” stood at 400 mg once daily. Also, in the series with lymphocyte, the “drug lymphocyte stimulation test result” value is listed as “positive”.
Take `CC(=O)O[C@H]1C(=O)[C@@]2(C)[C@H]([C@H](OC(=O)c3ccccc3)[C@]3(O)C[C@H](OC(=O)[C@H](O)[C@@H](NC(=O)c4ccccc4)c4ccccc4)C(C)=C1C3(C)C)[C@]1(OC(C)=O)CO[C@@H]1[C@@H](O)[C@@H]2O` [6-hydroxy-paclitaxel]: in series [1] (setting [3]), the “increases in the AUC and C max values after sorafenib administration” value was “not statistically significant”.
